From patent US8796452B2, “Preparation of lamivudine form I” (Merck Sharp & Dohme Corp., priority 2010, dated 2014)

Experiments:
[1] = milling, or storage at up to 45° C. at a relative humidity of 25% to 85%; Form I made by the process of WO 2009/069013; cited from earlier work
[2] = Equilibration of physical mixtures of Forms I, II and III in water-2-butanone solvent systems (most thermodynamically stable crystal form); assay type: physicochemical; settings: for water content of water-2-butanone mixtures in which Form I is thermodynamically stable: slurry equilibrated by aging
Procedure: Each admixture was then equilibrated by aging at its temperature until the relative amounts of each crystalline form remained constant. At the completion of equilibration, each admixture contained a slurry of a single crystal form, or a slurry in which one crystal form dominates. This crystal form is the most thermodynamically stable at the admixture conditions of temperature and water concentration. Form. […] Similarly, Form I was determined to be thermodynamically stable in water-2-butanone mixtures at about 25° C. when the mixtures contained from 3.5 to 6.0 wt. % water, and at about 50° C. when the mixtures contained from 5.0 to 8.5 wt. % water. Additional data was collected for the boundary between form I and form III; i.e., at 20° C. […] The data are shown in a phase map of temperature versus wt. % water in FIG. 1.

[3] = EtOH-water mixtures at 25° C.; cited from earlier work

## Nc1ccn([C@@H]2CS[C@H](CO)O2)c(=O)n1 [Form I]
[1]
  conversion of Form I to Form II: will not convert to Form II
[2]; 20° C.
  water content in 2-butanone at which Form I is more stable than Form III (Form I/Form III boundary): less than 5.7 wt % water
[2]; 30° C.
  water content in 2-butanone at which Form I is more stable than Form III (Form I/Form III boundary): less than 6.6 wt % water
[2]; about 0° C.
  water content of water-2-butanone mixtures in which Form I is thermodynamically stable: 2.5 to 5.0 wt. % water
[2]; about 25° C.
  water content of water-2-butanone mixtures in which Form I is thermodynamically stable: 3.5 to 6.0 wt. % water
[2]; about 50° C.
  water content of water-2-butanone mixtures in which Form I is thermodynamically stable: 5.0 to 8.5 wt. % water
[3]
  water that must be present in EtOH to convert the excess solid to Form I at equilibrium: 18-20%
